Changes are numbered by the printed parent chain.
Key:
[1] = target: T1, hybrid L2/pSS (Oryza sativa; Solanum tuberosum, UniProt P23509+Q7G065); assay: AGPase activity, phosphate release (PAMb colorimetric), Hill fit; type: biochemical; conditions: allosteric activator; ATP and Glc1P, 10 mM MgCl2, pH 8.0, room temperature; enzyme reduced with 10 mM DTT; read-out: A0.5
T1 construct: hybrid heterotetramer of whole rice L2 and whole potato SS, E. coli EA345, purified
T1 sequence (P23509 73-521): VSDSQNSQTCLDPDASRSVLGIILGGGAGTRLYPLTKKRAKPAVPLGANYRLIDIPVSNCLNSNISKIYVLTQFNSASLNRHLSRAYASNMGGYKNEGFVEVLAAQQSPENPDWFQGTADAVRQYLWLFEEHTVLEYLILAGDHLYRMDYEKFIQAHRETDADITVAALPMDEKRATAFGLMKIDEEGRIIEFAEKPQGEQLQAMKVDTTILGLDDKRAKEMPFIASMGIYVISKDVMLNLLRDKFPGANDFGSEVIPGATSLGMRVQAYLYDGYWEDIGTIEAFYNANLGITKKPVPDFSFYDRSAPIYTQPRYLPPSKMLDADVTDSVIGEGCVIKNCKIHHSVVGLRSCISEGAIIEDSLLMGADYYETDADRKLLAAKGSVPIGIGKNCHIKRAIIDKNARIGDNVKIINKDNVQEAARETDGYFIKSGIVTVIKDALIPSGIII
T1 sequence (Q7G065 1-518): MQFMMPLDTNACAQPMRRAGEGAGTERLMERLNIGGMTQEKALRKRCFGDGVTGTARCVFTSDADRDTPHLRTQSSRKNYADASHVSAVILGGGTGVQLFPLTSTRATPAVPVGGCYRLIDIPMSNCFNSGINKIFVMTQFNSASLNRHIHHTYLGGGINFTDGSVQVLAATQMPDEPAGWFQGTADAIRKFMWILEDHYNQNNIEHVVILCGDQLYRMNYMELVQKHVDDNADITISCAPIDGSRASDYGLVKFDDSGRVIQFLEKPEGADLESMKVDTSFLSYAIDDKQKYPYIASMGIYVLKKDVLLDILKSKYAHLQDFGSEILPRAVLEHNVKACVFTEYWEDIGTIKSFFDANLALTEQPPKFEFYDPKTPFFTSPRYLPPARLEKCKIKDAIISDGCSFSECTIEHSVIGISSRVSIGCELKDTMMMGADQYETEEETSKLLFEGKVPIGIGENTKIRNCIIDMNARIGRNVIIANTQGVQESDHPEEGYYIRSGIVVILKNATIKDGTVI
From the text: AGPase activity, phosphate release (PAMb colorimetric), Hill fit on hybrid L2/pSS

[2] = target: T2, rice AGPase L2/S2b (wild type; parent of L2/S2b^QTC and PQ6) (Oryza sativa, UniProt B7EVB8+Q7G065, B7EVB8:N38Q/B7EVB8:K39T/B7EVB8:N40C/B7EVB8:L379F); conditions: read-out: A0.5; allosteric activator; ATP and Glc1P, 10 mM MgCl2, pH 8.0, room temperature; enzyme reduced with 10 mM DTT
T2 construct: gene AGPL2
T2 sequence (Q7G065 1-518): T1 sequence (Q7G065 1-518)
T2 sequence (B7EVB8 1-479 N38Q/K39T/N40C/L379F): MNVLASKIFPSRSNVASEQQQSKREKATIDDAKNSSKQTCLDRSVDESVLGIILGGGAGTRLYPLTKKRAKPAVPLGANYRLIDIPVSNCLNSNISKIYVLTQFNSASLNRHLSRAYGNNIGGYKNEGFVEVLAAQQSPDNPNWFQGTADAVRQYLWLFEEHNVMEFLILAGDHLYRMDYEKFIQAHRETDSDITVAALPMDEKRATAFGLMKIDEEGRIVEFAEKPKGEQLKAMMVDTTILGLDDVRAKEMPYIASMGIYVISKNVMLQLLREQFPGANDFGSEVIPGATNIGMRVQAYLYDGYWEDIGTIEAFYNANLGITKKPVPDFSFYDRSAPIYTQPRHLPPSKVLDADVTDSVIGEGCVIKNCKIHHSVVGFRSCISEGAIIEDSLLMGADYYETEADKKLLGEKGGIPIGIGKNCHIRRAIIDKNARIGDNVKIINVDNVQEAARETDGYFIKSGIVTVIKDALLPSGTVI
From the text: (§1) AGPase activity, phosphate release (PAMb colorimetric), Hill fit on rice AGPase L2/S2b (wild type; parent of L2/S2b^QTC and PQ6)

[3] = target: T3, rice AGPase L2/S2b (wild type; parent of L2/S2b^QTC and PQ6) (Oryza sativa, UniProt B7EVB8+Q7G065, B7EVB8:N38Q/B7EVB8:K39T/B7EVB8:N40C); conditions: read-out: A0.5; allosteric activator; ATP and Glc1P, 10 mM MgCl2, pH 8.0, room temperature; enzyme reduced with 10 mM DTT
T3 construct: gene AGPL2
T3 sequence (Q7G065 1-518): T1 sequence (Q7G065 1-518)
T3 sequence (B7EVB8 1-479 N38Q/K39T/N40C): T2 sequence (B7EVB8 1-479 N38Q/K39T/N40C/L379F) with F379L
From the text: as §1

[4] = target: T4, rice AGPase L2/S2b (wild type; parent of L2/S2b^QTC and PQ6) (Oryza sativa, UniProt B7EVB8+Q7G065); conditions: read-out: A0.5; allosteric activator; ADP-glucose synthesis with ATP and Glc1P, 10 mM MgCl2, pH 8.0, room temperature; enzyme reduced with 10 mM DTT
T4 construct: gene AGPL2
T4 sequence (Q7G065 1-518): T1 sequence (Q7G065 1-518)
T4 sequence (B7EVB8 1-479): T2 sequence (B7EVB8 1-479 N38Q/K39T/N40C/L379F) with Q38N, T39K, C40N, F379L
From the text: as §1

EC50 [1]: 147 ± 3 µM
Compound: O=C(O)[C@H](O)COP(=O)(O)O [3-PGA]
EC50 [2]: 106 µM
EC50 [3]: 95 ± 2 µM
EC50 [4]: 342 ± 30 µM

Source: publication PMC6378277, “Mechanism Underlying Heat Stability of the Rice Endosperm Cytosolic ADP-Glucose Pyrophosphorylase” (Frontiers in Plant Science, 2019)
